Legend:
[1] = test system: recombinant FAD-GDH (rAO-FAD-GDH) derived from Aspergillus oryzae; experiment: Thermal stabilization effect of stabilizing agents on rAO-FAD-GDH in solution (Examples 3-6); format: physicochemical; conditions: for thermal stabilization effect on FAD-GDH (in words): 50° C. for 15 minutes, Example 3
Experimental: Enhancement of the thermal stability referred to herein means increasing of a residual ratio (%) of the GDH enzyme kept after giving the treatment with heat at a certain temperature for a certain time period to the composition comprising the GDH enzyme. In the present invention, the activity in the sample stored at 4° C. which is nearly completely kept is made 100%, this is compared with the activity in the GDH solution after giving the treatment with heat at a certain-temperature for a certain time period, and the residual ratio of the enzyme is calculated.
In the method for measuring the activity described in the method for measuring the GDH enzyme activity described later, an activity value (a) of GDH in the solution stored at 4° C. and an activity value (b) of GDH after giving the treatment with heat at a certain temperature for a certain time period were measured, a relative value[(b)/(a)×100] when the activity value (a) was made 100 was calculated. This relative value was made the residual ratio (%). Comparing the presence with the absence of the added compound, when the residual ratio was increased by the addition of the compound, it was determined that the thermal stability was enhanced.
In the present invention, the activity of FAD-dependent GDH is measured as follows.
The reaction-reagent is made by mixing 15.6 mL of the PIPES buffer, 0.2 mL of the DCPIP solution and 4 mL of the D-glucose solution.
(§1) The reaction reagent (3 mL) is preliminarily heated at 37° C. for 5 minutes. The GDH solution (0.1 mL) is added and gently mixed, subsequently the change of absorbance at 600 nm is recorded for 5 minutes using the spectrophotometer controlled to 37° C. using water as the control, and the change of absorbance per one minute (ΔODTEST) is calculated from the linear portion of the record. The solvent in which GDH will be dissolved in place of the blinded GDH solution is added to the reagent mixture, and the change of absorbance (ΔODBLANK) per one minute is measured. The GDH activity is calculated from these values according to the following formula. One unit (U) in the GDH activity is defined as the amount of the enzyme which reduces […] DCPIP for one minute in the presence of 200 mM D-glucose. Activity (U/mL)=[−(ΔODTEST−ΔODBLANK)×3.0×dilution scale]/(16.3×0.1×1.0) In the above formula, 3.0 represents a liquid amount (mL) of the reaction reagent+the enzyme solution, 16.3 represents a millimolar molecular absorbance coefficient (cm^2/μmol) in the condition for measuring this enzyme, 0.1 represents the liquid amount of the enzyme solution (mL) and 1.0 represents a light path length (cm) of the cell.
The study was performed in accordance with the method for measuring the FAD-GDH activity in Test Example 1 described above.
First, 50 mL of an enzyme solution obtained by dissolving the recombinant FAD-GDH (rAO-FAD-GDH)-derived from Aspergillus oryzae obtained in Example 1 at about 2 U/mL in an enzyme dilution solution (50 mM potassium phosphate buffer, pH 5.5, 0.1% Triton X-100) was prepared. Two tubes in which each stabilizing agent described in Table 1 had been added at each final concentration to 0.9 mL of this enzyme solution to make the total volume 1.0 mL were prepared.
(§2) In two tubes, one tube was stored at −4° C. and another tube was treated at 50° C. for 15 minutes. Then, the FAD-GDH activity in each tube was measured. The enzyme activity in the tube stored at 4° C. was made 100, and comparing with it, the activity value after being treated at 50° C. for 15 minutes was calculated as the residual activity ratio (%).
The method was in accordance with Example 3 described above.
The methods were in accordance with Example 3 above.

[2] = test system: recombinant FAD-GDH (rAT-FAD-GDH) derived from Aspergillus terreus; experiment: Thermal stabilization effect of stabilizing agents on rAT-FAD-GDH in solution (Example 9); format: physicochemical; conditions: for Residual activity ratio (%) / GLD activity value (U/ml) 50° C., 15 min: Table 10, buffer 50 mM K-PB, stabilizer at each final concentration described in Table 1; for Residual activity ratio (%): 50° C., 15 min versus 4° C.; for thermal stabilization effect on FAD-GDH (in words): rAT-FAD-GDH, 50° C. for 15 minutes, Example 9
Experimental: as §1, with “D-glucose.” for “D-glucose. Activity (U/mL)=[−(ΔODTEST−ΔODBLANK)×3.0×dilution scale]/(16.3×0.1×1.0) In the above formula, 3.0 represents a liquid amount (mL) of the reaction reagent+the enzyme solution, 16.3 represents a millimolar molecular absorbance coefficient (cm^2/μmol) in the condition for measuring this enzyme, 0.1 represents the liquid amount of the enzyme solution (mL) and 1.0 represents a light path length (cm) of the cell.”
Two tubes in which each stabilizing agent described in Table 1 had been added at each final concentration to 0.9 mL of this enzyme solution to make the total volume 1.0 mL were prepared.
as §2, with “4°” for “−4°”

[3] = stabilizer final concentration 1%, rAO-FAD-GDH about 2 U/mL, 50 mM potassium phosphate buffer pH 5.5, 0.1% Triton X-100, 4° C. sample = 100
[4] = stabilizer final concentration 0.25%, rAO-FAD-GDH, pH 5.5

| Residual activity ratio (%) after treatment at 50° C., 15 min [1, 3] [%] | Residual activity ratio (%) [2] [%] | thermal stabilization effect on FAD-GDH (in words) ([1]; rAO-FAD-GDH) | thermal stabilization effect on FAD-GDH (in words) [2] | Residual activity ratio (%) after treatment at 50° C., 15 min [1, 4] [%] | Residual activity ratio (%) after treatment at 50° C., 15 min ([1]; stabilizer final concentration 0.10%, rAO-FAD-GDH, pH 5.5) [%] | Residual activity ratio (%) after treatment at 50° C., 15 min ([1]; stabilizer final concentration 0.20%, rAO-FAD-GDH, pH 5.5) [%] | SMILES | GLD activity value (U/ml) 50° C., 15 min [2] [U/ml] |
| --- | --- | --- | --- | --- | --- | --- | --- | --- |
| 26.7 | 2.5 | high effect | high effect | – | – | – | OC[C@@H](O)[C@H]1OC[C@H](O)[C@H]1O [1,4-sorbitane] | 0.072 |
| – | 1.7 | – | – | 22.6 | – | – | NC(=O)CC[C@H](N)C(=O)O [L-glutamine] | 0.046 |
| – | 1.4 | – | – | – | 22.2 | – | CC(C)C[C@H](N)C(=O)O [L-leucine] | 0.038 |
| – | 1.6 | – | – | – | – | 22.8 | NC(=O)C[C@H](N)C(=O)O [L-asparagine] | 0.044 |
| 60.6 | 17.2 | high effect | high effect | – | – | – | O=C[C@H](O)[C@@H](O)[C@@H](O)[C@H](O)CO [Galactose] | 0.495 |
| 23.0 | 2.5 | high effect | high effect | – | – | – | O=C[C@@H](O)[C@H](O)[C@H](O)CO [D-(−)-arabinose] | 0.069 |
| 27.1 | 3.2 | high effect | high effect | – | – | – | C[C@H](N)C(=O)O [D-a-alanine] | 0.09 |
| 69.6 | 36.9 | high effect | high effect | – | – | – | O=CC[C@@H](O)[C@H](O)[C@H](O)CO [2-deoxy-D-glucose] | 1.032 |
| – | – | high effect | high effect | – | – | – | O=C(O)CC(=O)O [Malonic acid] | – |
| 0.0 | 0.1 | – | – | – | – | – | O=C1O[C@H](CO)[C@@H](O)[C@H](O)[C@H]1O [Glucono-1,5-lactone] | 0.003 |
| – | 1.7 | – | – | 23.4 | – | – | CC[C@H](C)[C@H](N)C(=O)O (racemic) [DL-isoleucine] | 0.047 |

The next lines start with the molecule.

| SMILES | Residual activity ratio (%) after treatment at 50° C., 15 min [1, 3] [%] | Residual activity ratio (%) [2] [%] | thermal stabilization effect on FAD-GDH (in words) ([1]; rAO-FAD-GDH) | thermal stabilization effect on FAD-GDH (in words) [2] | Residual activity ratio (%) after treatment at 50° C., 15 min [1, 4] [%] | Residual activity ratio (%) after treatment at 50° C., 15 min ([1]; stabilizer final concentration 0.10%, rAO-FAD-GDH, pH 5.5) [%] | Residual activity ratio (%) after treatment at 50° C., 15 min ([1]; stabilizer final concentration 0.20%, rAO-FAD-GDH, pH 5.5) [%] | GLD activity value (U/ml) 50° C., 15 min [2] [U/ml] |
| --- | --- | --- | --- | --- | --- | --- | --- | --- |
| N[C@@H](CC(=O)O)C(=O)O [L-aspartic acid] | 12.2 | 0.2 | – | – | – | – | – | 0.005 |
| N[C@@H](CC(=O)[O-])C(=O)[O-].[Na+].[Na+] [Sodium L-aspartate] | 23.0 | 3.7 | high effect | high effect | – | – | – | 0.102 |
| [Cl-].[Na+] [Sodium chloride] | – | – | high effect | high effect | – | – | – | – |
| N[C@@H](Cc1ccccc1)C(=O)O [phenylalanine] | – | – | high effect | high effect | – | – | – | – |
| O=S(=O)([O-])[O-].[Na+].[Na+] [Sodium sulfate] | – | – | high effect | high effect | – | – | – | – |
| Cl.NCCCC[C@H](N)C(=O)O [L-lysine hydrochloride] | 23.4 | 3.5 | high effect | high effect | – | – | – | 0.093 |
| O=C([O-])CC(O)(CC(=O)[O-])C(=O)[O-].[Na+].[Na+].[Na+] [Trisodium citrate] | – | – | high effect | high effect | – | – | – | – |
| N[C@@H](Cc1c[nH]cn1)C(=O)O [L-histidine] | – | 0.5 | – | – | 11.4 | – | – | 0.015 |
| O=C(CO)[C@@H](O)[C@H](O)[C@H](O)CO [D-(−)-fructose] | 25.9 | 2.7 | high effect | high effect | – | – | – | 0.075 |
| OC[C@H]1O[C@@H]2O[C@H]3[C@H](O)[C@@H](O)[C@@H](O[C@H]4[C@H](O)[C@@H](O)[C@@H](O[C@H]5[C@H](O)[C@@H](O)[C@@H](O[C@H]6[C@H](O)[C@@H](O)[C@@H](O[C@H]7[C@H](O)[C@@H](O)[C@@H](O[C@H]1[C@H](O)[C@H]2O)O[C@@H]7CO)O[C@@H]6CO)O[C@@H]5CO)O[C@@H]4CO)O[C@@H]3CO [a-cyclodextrin] | 44.1 | 1.5 | – | – | – | – | – | 0.044 |
| N.N.O=S(=O)(O)O [Ammonium sulfate] | – | – | high effect | high effect | – | – | – | – |
| CNCC(=O)O [Sarcosine] | 25.2 | 3.0 | high effect | high effect | – | – | – | 0.081 |
| OC[C@H]1O[C@H](OCC2O[C@@H](O)[C@H](O)[C@@H](O)[C@@H]2O)[C@H](O)[C@@H](O)[C@H]1O (stereo partly drawn) [a-D-(+)-melibiose] | 59.0 | 7.3 | high effect | high effect | – | – | – | 0.197 |
